Experimental data: patent publication US9018258B2, “Substituted 1-benzylcycloalkylcarboxylic acids and the use thereof” (Bayer Intellectual Property GmbH, priority 2010, dated 2015)

Biological target: T1, sGC (Rattus norvegicus, UniProt P20595)
T1 construct: expressed in transfected cells; host or cells: CHO reporter cell
Test: Action at a recombinant guanylate cyclase reporter cell line (CHO reporter cell)
Assay type: cell-based
Conditions: CHO reporter cell in vitro
Method: The cellular action of the compounds according to the invention is determined at a recombinant guanylate cyclase reporter cell line, as described in F. Wunder et al., Anal. Biochem. 339, 104-112 (2005).

T1 sequence (P19686 whole entry partner): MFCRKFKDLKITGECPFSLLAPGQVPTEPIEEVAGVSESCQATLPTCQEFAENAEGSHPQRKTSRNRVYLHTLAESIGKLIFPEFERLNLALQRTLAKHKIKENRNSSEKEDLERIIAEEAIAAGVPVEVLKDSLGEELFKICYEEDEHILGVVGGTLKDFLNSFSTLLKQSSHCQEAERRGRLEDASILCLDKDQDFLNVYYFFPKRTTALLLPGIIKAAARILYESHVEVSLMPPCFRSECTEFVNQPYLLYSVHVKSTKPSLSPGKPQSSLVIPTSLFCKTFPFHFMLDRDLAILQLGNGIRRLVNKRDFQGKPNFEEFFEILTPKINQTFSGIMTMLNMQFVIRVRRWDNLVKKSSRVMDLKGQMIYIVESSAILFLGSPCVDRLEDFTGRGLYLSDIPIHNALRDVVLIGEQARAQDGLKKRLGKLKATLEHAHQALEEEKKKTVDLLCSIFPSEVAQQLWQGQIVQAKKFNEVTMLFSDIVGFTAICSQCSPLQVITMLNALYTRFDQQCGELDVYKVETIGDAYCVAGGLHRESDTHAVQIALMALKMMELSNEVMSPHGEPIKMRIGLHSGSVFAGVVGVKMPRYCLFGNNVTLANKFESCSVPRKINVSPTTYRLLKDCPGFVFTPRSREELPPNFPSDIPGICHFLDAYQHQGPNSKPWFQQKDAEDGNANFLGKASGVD
T1 sequence (P20595 whole entry): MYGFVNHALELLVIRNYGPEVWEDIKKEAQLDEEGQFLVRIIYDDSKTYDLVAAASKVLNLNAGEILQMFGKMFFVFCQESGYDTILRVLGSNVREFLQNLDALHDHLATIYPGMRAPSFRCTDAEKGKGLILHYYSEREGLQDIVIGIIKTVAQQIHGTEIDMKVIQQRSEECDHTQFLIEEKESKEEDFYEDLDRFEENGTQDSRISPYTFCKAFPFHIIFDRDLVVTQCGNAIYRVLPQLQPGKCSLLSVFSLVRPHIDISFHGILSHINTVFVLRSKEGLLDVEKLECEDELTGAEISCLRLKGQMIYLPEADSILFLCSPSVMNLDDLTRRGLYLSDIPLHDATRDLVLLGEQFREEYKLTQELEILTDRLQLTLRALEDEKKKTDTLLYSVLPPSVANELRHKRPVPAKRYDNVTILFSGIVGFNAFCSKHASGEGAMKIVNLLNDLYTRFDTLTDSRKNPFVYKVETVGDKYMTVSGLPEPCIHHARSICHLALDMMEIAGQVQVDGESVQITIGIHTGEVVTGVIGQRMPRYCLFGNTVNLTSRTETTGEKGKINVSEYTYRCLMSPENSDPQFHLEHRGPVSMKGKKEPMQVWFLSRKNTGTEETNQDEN

Row | MEC (minimum effective concentration), sGC-activating activity in the CHO reporter cell [nM] | Structure (SMILES)
1 | 100 | C[C@H]([C@H](C(=O)Nc1cccc(CC2(C(=O)O)CC2)c1Cl)c1ccc(Cl)cc1)C(F)(F)F [Example 27, (+)-1-(2-chloro-3-{[(2S,3R)-2-(4-chlorophenyl)-4,4,4-trifluoro-3-methylbutanoyl]amino}benzyl)-cyclopropanecarboxylic acid]
2 | 10 | C[C@H]([C@H](C(=O)Nc1c(Cl)ccc(CC2(C(=O)O)CC2)c1F)c1ccc(Cl)cc1)C(F)(F)F [Example 52, 1-(4-Chloro-3-{[(2S,3R)-2-(4-chlorophenyl)-4,4,4-trifluoro-3-methylbutanoyl]amino}-2-fluorobenzyl)cyclopropanecarboxylic acid]
3 | 3 | C[C@H]([C@H](C(=O)Nc1cc(CC2(C(=O)O)CC2(F)F)ccc1Cl)c1ccc(Cl)cc1)C(F)(F)F (stereo partly drawn) [Example 69, 1-(4-Chloro-3-{[(2S,3R)-2-(4-chlorophenyl)-4,4,4-trifluoro-3-methylbutanoyl]amino}benzyl)-2,2-difluorocyclopropanecarboxylic acid]
4 | 20 | CC(C(C(=O)Nc1cccc(CC2(C(=O)O)CC2)c1)c1ccc(Cl)cc1)C(F)(F)F (single isomer, unassigned) [Example 84, 1-(3-{[2-(4-Chlorophenyl)-4,4,4-trifluoro-3-methylbutanoyl]amino}benzyl)cyclopropane-carboxylic acid]
5 | 0.1 | CC(C)c1ccc([C@@H](C(=O)Nc2cc(CC3(C(=O)O)CC3)ccc2F)[C@@H](C)C(F)(F)F)cc1 [Example 37, 1-(4-fluoro-3-{[(2S,3R)-4,4,4-trifluoro-2-(4-isopropylphenyl)-3-methylbutanoyl]amino}-benzyl)cyclopropanecarboxylic acid]
6 | 10 | C[C@H]([C@H](C(=O)Nc1cc(CC2(C(=O)O)CC2)ccc1C1CC1)c1ccc(Cl)cc1)C(F)(F)F [Example 97, 1-(3-{[(2S,3R)-2-(4-chlorophenyl)-4,4,4-trifluoro-3-methylbutanoyl]amino}-4-cyclopropyl-benzyl)cyclopropanecarboxylic acid]
7 | 30 | C[C@H]([C@H](C(=O)Nc1cc(C(C)(O)C2(C(=O)O)CC2)ccc1Cl)c1ccc(Cl)cc1)C(F)(F)F (stereo partly drawn) [Example 111, 1-[1-(4-chloro-3-{[(2S,3R)-2-(4-chlorophenyl)-4,4,4-trifluoro-3-methylbutanoyl]amino}phenyl)-1-hydroxyethyl]cyclopropanecarboxylic acid]
8 | 0.3 | CCC(c1ccc(Cl)c(NC(=O)[C@H](c2ccc(Cl)cc2)[C@@H](C)C(F)(F)F)c1)C1(C(=O)O)CC1 (stereo partly drawn) [Example 98, 1-[1-(4-Chloro-3-{[(2S,3R)-2-(4-chlorophenyl)-4,4,4-trifluoro-3-methylbutanoyl]amino}phenyl)-propyl]cyclopropanecarboxylic acid]
9 | 3 | C[C@H]([C@H](C(=O)Nc1ccc(Cl)c(CC2(C(=O)O)CC2)c1F)c1ccc(Cl)cc1)C(F)(F)F [Example 28, 1-(6-chloro-3-{[(2S,3R)-2-(4-chlorophenyl)-4,4,4-trifluoro-3-methylbutanoyl]amino}-2-fluorobenzyl)cyclopropanecarboxylic acid]

The remaining lines, values behind:

Row | Structure (SMILES) | MEC (minimum effective concentration), sGC-activating activity in the CHO reporter cell [nM]
10 | C[C@H]([C@H](C(=O)Nc1cc(CC2(C(=O)O)CC2)ccc1F)c1ccc(C(C)(C)C)cc1)C(F)(F)F [Example 39, 1-(3-{[(2S,3R)-2-(4-tert-butylphenyl)-4,4,4-trifluoro-3-methylbutanoyl]amino}-4-fluorobenzyl)cyclopropanecarboxylic acid] | 0.3
11 | C[C@H]([C@H](C(=O)Nc1cc(CC2(C(=O)O)CC2)ccc1F)c1ccc(F)cc1)C(F)(F)F [Example 22, (+)-1-(4-fluoro-3-{[(2S,3R)-4,4,4-trifluoro-2-(4-fluorophenyl)-3-methylbutanoyl]amino}-benzyl)cyclopropanecarboxylic acid] | 10
12 | O=C(Nc1cc(CC2(C(=O)O)CC2)ccc1F)C(c1ccc(Cl)cc1)C1CCCC1 (racemic) [Example 8, (+/−)-1-(3-{[(4-chlorophenyl)(cyclopentyl)acetyl]-amino}-4-fluorobenzyl)cyclopropanecarboxylic acid] | 3
13 | Cc1cc(C(C(=O)Nc2cccc(CC3(C(=O)O)CC3)c2)C(C)C(F)(F)F)ccc1Cl (centres unmarked) [Example 49, 1-(3-{[2-(4-chloro-3-methylphenyl)-4,4,4-trifluoro-3-methylbutanoyl]amino}benzyl)-cyclopropanecarboxylic acid] | 30
14 | O=C(Nc1cccc(CC2(C(=O)O)CC2)c1)C(c1ccc(CC(F)F)cc1)C1CCCC1 (racemic) [Example 14, (+/−)-1-[3-({cyclopentyl[4-(2,2-difluoroethyl)-phenyl]acetyl}amino)benzyl]cyclopropane-carboxylic acid] | 100
15 | O=C(Nc1cc(CC2(C(=O)O)CC2)ccc1F)C(c1ccc(Cl)cc1)C1CCC(F)(F)C1 (single isomer, unassigned) [Example 78, 1-(3-{[(4-Chlorophenyl)(3,3-difluorocyclopentyl)acetyl]amino}-4-fluorobenzyl)cyclopropanecarboxylic acid] | 3
16 | O=C(Nc1cc(CC2(C(=O)O)CC2)ccc1F)C(c1ccc(Cl)cc1)C1CCCC1(F)F (racemic) [Example 65, 1-(3-{[(4-Chlorophenyl)(2,2-difluorocyclopentyl)acetyl]amino}-4-fluorobenzyl)cyclopropane-carboxylic acid] | 5.3
17 | O=C(Nc1cccc(CC2(C(=O)O)CC2)c1)C(c1ccc(C=C(F)F)cc1)C1CCCC1 (racemic) [Example 12, (+/−)-1-[3-({cyclopentyl[4-(2,2-difluorovinyl)-phenyl]acetyl}amino)benzyl]cyclopropane-carboxylic acid] | 100
18 | O=C(Nc1cc(CC2(C(=O)O)CC2)ccc1F)C(c1ccc([N+](=O)[O-])cc1)C1CCCC1 (racemic) [Example 16, (+/−)-1-(3-{[(4-nitrophenyl)(cyclopentyl)acetyl]-amino}-4-fluorobenzyl)cyclopropanecarboxylic acid] | 10
19 | O=C(Nc1cccc(CC2(C(=O)O)CC2)c1F)C(c1ccc(Cl)cc1)C1CCCC1 (racemic) [Example 6, (+/−)-1-(3-{[(4-chlorophenyl)(cyclopentyl)acetyl]-amino}-2-fluorobenzyl)cyclopropanecarboxylic acid] | 30
20 | C=Cc1ccc(C(C(=O)Nc2cccc(CC3(C(=O)O)CC3)c2)C2CCCC2)cc1 (racemic) [Example 13, (+/−)-1-(3-{[cyclopentyl(4-vinylphenyl)acetyl]-amino}benzyl)cyclopropanecarboxylic acid] | 30
21 | CCc1ccc(C(C(=O)Nc2cc(CC3(C(=O)O)CC3)ccc2F)C(C)C(F)(F)F)cc1 (racemic) [Example 9, (+/−)-1-(3-{[2-(4-ethylphenyl)-4,4,4-trifluoro-3-methylbutanoyl]amino}-4-fluorobenzyl)-cyclopropanecarboxylic acid] | 1
22 | N#Cc1ccc(C(C(=O)Nc2cc(CC3(C(=O)O)CC3)ccc2F)C2CCCC2)cc1 (racemic) [Example 15, (+/−)-1-(3-{[(4-cyanophenyl)(cyclopentyl)acetyl]-amino}-4-fluorobenzyl)cyclopropanecarboxylic acid] | 30
23 | CC(C(C(=O)Nc1cc(CC2(C(=O)O)CC2)ccc1Cl)c1ccc(CC(F)(F)F)cc1)C(F)(F)F (centres unmarked) [Example 46, 1-[4-chloro-3-({4,4,4-trifluoro-3-methyl-2-[4-(2,2,2-trifluoroethyl)phenyl]butanoyl}amino)-benzyl]cyclopropanecarboxylic acid] | 1
